Measured values: ChEMBL document CHEMBL4828751, “Discovery of novel tubulin/HDAC dual-targeting inhibitors with strong antitumor and antiangiogenic potency” (Eur J Med Chem, 2021)

Key:
U-937 = experiment: Antiproliferative activity against human U-937 cells assessed as cell growth inhibition after 72 hrs by CCK8 assay; type: functional, cell-based; details: U-937, 72 h
A549 = experiment: Antiproliferative activity against human A549 cells assessed as cell growth inhibition after 72 hrs by SRB assay; type: functional, cell-based; details: A549, 72 h
MGC-803 = experiment: Antiproliferative activity against human MGC-803 cells assessed as cell growth inhibition after 72 hrs by SRB assay; type: functional, cell-based; details: MGC-803, 72 h
HepG2 = experiment: Antiproliferative activity against human HepG2 cells assessed as cell growth inhibition after 72 hrs by SRB assay; type: functional, cell-based; details: HepG2, 72 h
MCF7 = experiment: Antiproliferative activity against human MCF7 cells assessed as cell growth inhibition after 72 hrs by SRB assay; type: functional, cell-based; details: MCF7, 72 h
HeLa = experiment: Antiproliferative activity against human HeLa cells assessed as cell growth inhibition after 72 hrs by SRB assay; type: functional, cell-based
Histone deacetylase = experiment: Inhibition of HDAC (unknown origin); type: protein assay, Homo sapiens
Tubulin = experiment: Inhibition of tubulin polymerization (unknown origin) measured after 1 min by fluorescence assay; type: protein-complex assay, Homo sapiens

SMILES	IC50 (U-937)	IC50 (A549)	IC50 (MGC-803)	IC50 (HepG2)	IC50 (MCF7)	IC50 (HeLa)	IC50 (Histone deacetylase)	IC50 (Tubulin; read-out: IC50)	IC50 (Tubulin)
COc1ccc(C(=O)c2cc(OC)c(OC)c(OC)c2)cc1Oc1ccc(C(=O)Nc2ccccc2N)cn1	> 5 µM	> 5 µM	> 5 µM	> 5 µM	> 5 µM	> 5 µM	–	–	–
COc1ccc(/C=C\c2cc(OC)c(OC)c(OC)c2)cc1/C=C/C(=O)NO	0.805 µM	0.254 µM	0.208 µM	0.252 µM	0.158 µM	0.257 µM	–	–	–
COc1ccc(/C=C\c2cc(OC)c(OC)c(OC)c2)cc1OCCCC(=O)NO	2.54 µM	0.371 µM	0.063 µM	0.081 µM	0.982 µM	0.031 µM	1.4 µM	5.2 µM	–
COc1ccc(C(=O)c2cc(OC)c(OC)c(OC)c2)cc1OCCCC(=O)Nc1ccccc1N	> 5 µM	> 5 µM	> 5 µM	> 5 µM	> 5 µM	> 5 µM	–	–	–
COc1ccc(C(=O)c2cc(OC)c(OC)c(OC)c2)cc1OCCCCC(=O)Nc1ccccc1N	> 5 µM	> 5 µM	> 5 µM	> 5 µM	> 5 µM	> 5 µM	–	–	–
COc1ccc(/C=C\c2cc(OC)c(OC)c(OC)c2)cc1OCc1ccc(C(=O)Nc2ccccc2N)cc1	1.79 µM	2.21 µM	0.604 µM	3.41 µM	1.47 µM	2.21 µM	–	–	–
COc1ccc(C(=O)c2cc(OC)c(OC)c(OC)c2)c(/C=C/C(=O)Nc2ccccc2N)c1	1.68 µM	3.21 µM	1.61 µM	1.56 µM	1.18 µM	1.04 µM	–	–	–
COc1ccc(/C=C\c2cc(OC)c(OC)c(OC)c2)c(/C=C/C(=O)NO)c1	0.995 µM	2.23 µM	0.146 µM	0.164 µM	0.641 µM	0.061 µM	–	–	–
COc1ccc(C(=O)c2cc(OC)c(OC)c(OC)c2)cc1OCc1ccc(C(=O)NO)cc1	> 5 µM	> 5 µM	> 5 µM	> 5 µM	> 5 µM	> 5 µM	–	–	–
COc1ccc(C(=O)c2cc(OC)c(OC)c(OC)c2)cc1OCCCCC(=O)NO	> 5 µM	> 5 µM	> 5 µM	> 5 µM	> 5 µM	> 5 µM	–	–	–
COc1ccc(/C=C\c2cc(OC)c(OC)c(OC)c2)cc1Oc1ccc(C(=O)NO)cn1	3.32 µM	2.44 µM	1.09 µM	> 5 µM	0.485 µM	2.44 µM	–	–	–
COc1ccc(/C=C\c2cc(OC)c(OC)c(OC)c2)cc1Oc1ccc(C(C)(C)C(=O)NO)cc1	> 5 µM	> 5 µM	> 5 µM	> 5 µM	> 5 µM	> 5 µM	–	–	–
COc1ccc(/C=C\c2cc(OC)c(OC)c(OC)c2)cc1OCC(=O)Nc1ccccc1N	> 5 µM	> 5 µM	> 5 µM	> 5 µM	> 5 µM	> 5 µM	–	–	–
COc1ccc(C(=O)c2cc(OC)c(OC)c(OC)c2)cc1/C=C/C(=O)Nc1ccccc1N	2.25 µM	3.21 µM	1.1 µM	1.17 µM	0.828 µM	1.18 µM	–	–	–
COc1ccc(C(=O)c2cc(OC)c(OC)c(OC)c2)cc1OCc1ccc(C(=O)Nc2ccccc2N)cc1	> 5 µM	> 5 µM	> 5 µM	> 5 µM	> 5 µM	> 5 µM	–	–	–
COc1ccc(/C=C\c2cc(OC)c(OC)c(OC)c2)cc1OCc1ccc(C(=O)NO)cc1	0.389 µM	0.44 µM	0.182 µM	1.33 µM	0.817 µM	0.44 µM	0.39 µM	8.6 µM	–

SMILES	IC50 (U-937)	IC50 (A549)	IC50 (MGC-803)	IC50 (HepG2)	IC50 (MCF7)	IC50 (HeLa)	IC50 (Histone deacetylase)	IC50 (Tubulin; read-out: IC50)	IC50 (Tubulin)
O=C(CCCCCCC(=O)Nc1ccccc1)NO [VORINOSTAT]	–	–	–	–	–	–	–	–	Not Active
COc1ccc(/C=C\c2cc(OC)c(OC)c(OC)c2)cc1Oc1ccc(C(=O)Nc2ccccc2N)cc1	4.33 µM	> 5 µM	1.36 µM	4.7 µM	1.57 µM	> 5 µM	–	–	–
COc1ccc(/C=C\c2cc(OC)c(OC)c(OC)c2)cc1OCCCC(=O)Nc1ccccc1N	5.78 µM	3.24 µM	> 5 µM	> 5 µM	4.28 µM	0.74 µM	–	–	–
COc1ccc(/C=C\c2cc(OC)c(OC)c(OC)c2)cc1OCCCCC(=O)Nc1ccccc1N	> 5 µM	> 5 µM	> 5 µM	> 5 µM	> 5 µM	> 5 µM	–	–	–
COc1ccc(C(=O)c2cc(OC)c(OC)c(OC)c2)cc1Oc1ccc(C(=O)NO)cn1	> 5 µM	> 5 µM	> 5 µM	> 5 µM	> 5 µM	> 5 µM	–	–	–
COc1ccc(/C=C\c2cc(OC)c(OC)c(OC)c2)cc1Oc1ccc(C(C)(C)C(=O)Nc2ccccc2N)cc1	> 5 µM	> 5 µM	> 5 µM	> 5 µM	> 5 µM	> 5 µM	–	–	–
COc1ccc(C(=O)c2cc(OC)c(OC)c(OC)c2)cc1Oc1ccc(C(=O)Nc2ccccc2N)cc1	> 5 µM	> 5 µM	> 5 µM	> 5 µM	> 5 µM	> 5 µM	–	–	–
COc1ccc(/C=C\c2cc(OC)c(OC)c(OC)c2)cc1OCC(=O)NO	> 5 µM	0.285 µM	0.013 µM	0.122 µM	0.419 µM	0.064 µM	–	–	–
COc1ccc(/C=C\c2cc(OC)c(OC)c(OC)c2)cc1Oc1ccc(C(=O)NO)cc1	3.5 µM	1.47 µM	0.927 µM	4.55 µM	1.47 µM	1.47 µM	–	–	–
COc1ccc(/C=C\c2cc(OC)c(OC)c(OC)c2)cc1OCCCCC(=O)NO	3.32 µM	4.81 µM	1.13 µM	3.56 µM	2.81 µM	0.189 µM	–	–	–
COc1ccc(C(=O)c2cc(OC)c(OC)c(OC)c2)cc1OCCCC(=O)NO	> 5 µM	> 5 µM	> 5 µM	> 5 µM	> 5 µM	> 5 µM	–	–	–
COc1ccc(C(=O)c2cc(OC)c(OC)c(OC)c2)cc1OCC(=O)Nc1ccccc1N	0.758 µM	> 5 µM	> 5 µM	> 5 µM	> 5 µM	> 5 µM	–	–	–
COc1ccc(/C=C\c2cc(OC)c(OC)c(OC)c2)c(/C=C/C(=O)Nc2ccccc2N)c1	3.75 µM	4.69 µM	0.301 µM	2.76 µM	2.12 µM	1.96 µM	–	–	–
COc1ccc(/C=C\c2cc(OC)c(OC)c(OC)c2)cc1Oc1ccc(C(=O)Nc2ccccc2N)cn1	3.22 µM	> 5 µM	1.29 µM	4.92 µM	2.61 µM	> 5 µM	–	–	–
COc1ccc(C(=O)c2cc(OC)c(OC)c(OC)c2)cc1Oc1ccc(C(=O)NO)cc1	> 5 µM	> 5 µM	> 5 µM	> 5 µM	> 5 µM	> 5 µM	–	–	–
